From ChEMBL document CHEMBL1126192, “PgH2 analogs as potential antiplatelet derivatives” (J Med Chem, 1992)

Assays:
[1] = biological target: T1, Thromboxane A2 receptor (Homo sapiens, UniProt P21731); assay: Compound was evaluated for the competitive binding of [3H]U-46619 to washed human platelets at the Thromboxane A2 receptor
T1 sequence (P21731 whole entry): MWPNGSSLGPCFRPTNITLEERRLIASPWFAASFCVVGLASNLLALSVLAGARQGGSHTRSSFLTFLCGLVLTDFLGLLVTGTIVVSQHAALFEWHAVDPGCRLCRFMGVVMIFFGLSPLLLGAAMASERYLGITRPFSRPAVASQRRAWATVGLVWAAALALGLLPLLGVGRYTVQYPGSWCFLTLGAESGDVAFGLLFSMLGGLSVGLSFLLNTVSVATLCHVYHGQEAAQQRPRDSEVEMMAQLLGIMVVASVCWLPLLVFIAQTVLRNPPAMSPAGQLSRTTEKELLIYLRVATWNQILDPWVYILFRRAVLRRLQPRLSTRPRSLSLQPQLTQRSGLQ

[2] = organism: Homo sapiens; assay: Compound was evaluated for the inhibition of U-46,619 induced aggregation of human platelet rich plasma; type: functional

IC50 [1] [µM]	IC50 [2] [µM]	Structure (SMILES)
25	22	CCCCCCNC[C@H]1C2CC(CO2)[C@@H]1C/C=C\CCCC(=O)O (stereo partly drawn)
	7	O=C(O)CCC/C=C\C[C@H]1C2COC(C2)[C@@H]1CNNC(=O)Nc1ccccc1 (stereo partly drawn)
